In the NIST ThermoML archive (doi:10.1021/acs.jced.8b00236):
“And” between values parts separate entries of the source, which are not always exact repeats. Equal values may be shown once.

Columns and labels:
[1] = mn = molality of the nth substance listed, in mol/kg; settings: 75 kPa, Liquid; for viscosity: Capillary tube (Ostwald / Ubbelohde) method; for speed of sound: Frequency=3 MHz, Single path-length method; for mass density: Vibrating tube method
[2] = 75 kPa, Liquid, Capillary tube (Ostwald / Ubbelohde) method

[Cl-].[Na+] [sodium chloride] + O
[1]
Settings	mass density, m1 = 0.15	mass density, m1 = 0.25	speed of sound, m1 = 0.15	speed of sound, m1 = 0.25	viscosity, m1 = 0.15	viscosity, m1 = 0.25 [mPa·s]
288.15 K	1005.46 kg/m3 and 1005.45 kg/m3 and 1005.36 kg/m3	1009.51 kg/m3	1476.6 m/s and 1476.5 m/s	1483.6 m/s and 1483.4 m/s and 1483.3 m/s	1.156 mPa·s and 1.158 mPa·s	1.166
293.15 K	1004.48 kg/m3 [middle of 4 runs]	1008.5 kg/m3 and 1008.51 kg/m3	1492.3 m/s and 1492.2 m/s	–	1.016 mPa·s	1.025
298.15 K	1003.26 kg/m3 and 1003.27 kg/m3 and 1003.18 kg/m3	1007.26 kg/m3	1506.2 m/s and 1506 m/s and 1506.1 m/s	1512.5 m/s and 1512.3 m/s and 1512.2 m/s	0.905 mPa·s and 0.9049 mPa·s and 0.906 mPa·s	0.913
303.15 K	1001.83 kg/m3 [middle of 4 runs]	1005.78 kg/m3 and 1005.79 kg/m3	1518.2 m/s and 1518.1 m/s	1524.3 m/s and 1524.1 m/s and 1524 m/s	0.811 mPa·s [middle of 4 runs]	0.819
308.15 K	1000.11 kg/m3 [middle of 5 runs]	1004.12 kg/m3 and 1004.11 kg/m3	1528.7 m/s and 1528.6 m/s	1534.3 m/s [middle of 5 runs]	0.731 mPa·s and 0.7306 mPa·s and 0.732 mPa·s	0.739

O [water]
[2]
Settings	viscosity
288.15 K	1.146 mPa·s
293.15 K	1.007 mPa·s and 1.004 mPa·s
298.15 K	0.893 mPa·s and 0.8929 mPa·s
303.15 K	0.797 mPa·s and 0.7965 mPa·s
308.15 K	0.719 mPa·s and 0.7187 mPa·s

O [water] + NCC(=O)O
[1], m2 = 0
Settings	viscosity [mPa·s]
288.15 K	1.146
293.15 K	1.007
298.15 K	0.893
303.15 K	0.797
308.15 K	0.719

O [water] + NCCC(=O)O
[1], m2 = 0
Settings	viscosity [mPa·s]
288.15 K	1.146
293.15 K	1.004
298.15 K	0.8929
303.15 K	0.7965
308.15 K	0.7187

O [water] + NCCCC(=O)O
[1], m2 = 0
Settings	viscosity [mPa·s]
288.15 K	1.146
293.15 K	1.004
298.15 K	0.893
303.15 K	0.797
308.15 K	0.719

O [water] + NCCCCC(=O)O
[1], m2 = 0
Settings	viscosity [mPa·s]
288.15 K	1.146
293.15 K	1.004
298.15 K	0.893
303.15 K	0.797
308.15 K	0.719

O [water] + NCCCCCC(=O)O
[1], m2 = 0
Settings	viscosity [mPa·s]
288.15 K	1.146
293.15 K	1.004
298.15 K	0.893
303.15 K	0.797
308.15 K	0.719
